Results published in patent US20030199743A1, “Screening test and procedure using apocrine sweat” (priority 2000, published 2003).

Test: THC in blood, eccrine sweat, apocrine sweat and urine after smoking a THC containing product
Format: in vivo, human
Procedure: Samples of apocrine and eccrine sweat were collected prior to oral consumption of a THC containing product. No THC was detected in either sample. The test individual then orally consumed (smoked) a quantity of a THC containing product. Small quantities (0.5 cc) of apocrine and eccrine sweat was separately collected over a period of 30 minutes under ambient conditions to induce sweating. When the collected samples were tested using standard laboratory tests for THC metabolites […].

## CCCCCc1cc(O)c2c(c1)OC(C)(C)[C@@H]1CCC(C)=C[C@@H]21 [Delta 9 THC, delta nine tetrahydrocannibinol]
Apocrine sweat (0.5 cc) collected over 30 minutes after smoking a THC containing product
  Delta 9 THC concentration in apocrine sweat: 107 nanograms/ml
blood, test individual after smoking a THC containing product, standard laboratory test for THC
  Delta 9 THC concentration in blood: 21 nanograms/ml
Eccrine sweat (0.5 cc) collected over 30 minutes after smoking a THC containing product
  Delta 9 THC concentration in eccrine sweat: 4 nanograms/ml
Ratio apocrine sweat / blood
  Quantity of THC in apocrine sweat relative to blood: 5.1 times
Ratio apocrine sweat / eccrine sweat
  Quantity of THC in apocrine sweat relative to eccrine sweat: 26.75 times
urine, after smoking a THC containing product
  Delta 9 THC concentration in urine: undetect-
